Measurements as given in US20130090364A1, “ANALOGUES FOR THE TREATMENT OR PREVENTION OF FLAVIVIRUS INFECTIONS” (priority 2010, published 2013).

These compounds were tested on HCV (1b) RNA replication (replicon I389Luc-ubi-neo/NS3-3′/5.1) (assay: Cell-based luciferase reporter HCV (1b) RNA replication assay, Huh-ET cells). Settings: Hepatitis C virus; Table 2A; HCV genotype 1b replicon.
Source text: Cell-Based Luciferase Reporter HCV (Ib) RNA Replication Assay Cell Culture
Replicon cell lines Huh-5.2 are derived from the Huh-7 hepatocarcinoma cell line are maintained in culture as generally described in Krieger, N; Lohmann, V; Bartenschlager, R. Enhancement of hepatitis C virus RNA replication by cell culture-adaptive mutations. J. Virol. 2001, 75, 4614-4624. The Huh-5.2 cells contain the highly cell culture-adapted replicon I389Luc-ubi-neo/NS3-3′/5.1 construct that carries, in addition to the neomycin gene, an integrated copy to the firefly luciferase gene (Krieger, N; Lohmann, V; Bartenschlager, R. Enhancement of hepatitis C virus RNA replication by cell culture-adaptive mutations. J. Virol. 2001, 75, 4614-4624). This cell line allows measurement of HCV RNA replication and translation by measuring luciferase activity. It has been previously shown that the luciferase activity tightly follows the replicon RNA level in these cells (Krieger, N; Lohmann, V; Bartenschlager, R. Enhancement of hepatitis C virus RNA replication by cell culture-adaptive mutations. J. Virol. 2001, 75, 4614-4624). The Huh-ET cell line has the same features as those mentioned for Huh-5.2 cell line, except that ET cells are more robust and contain an adaptative mutation in the HCV NS4B gene instead of NSSA. Both cell lines are maintained in cultures at a sub-confluent level (<85%) as the level of replicon RNA is highest in actively proliferating cells. The culture media used for cell passaging consist of DMEM (Gibco BRL Laboratories, Mississauga, ON, Canada) supplemented with 10% foetal bovine serum with 1% penicilin/streptomycin, 1% glutamine, 1% sodium pyruvate, 1% non-essential amino acids, and 180 μg/ml of G418 final concentration. Cells are incubated at 37° C., in an atmosphere of 5% CO2 and passaged twice a week to maintain sub-confluence.
Approximately 3000 viable Huh-ET cells (100 μl) are plated per well in a white opaque 96-well microtiter plate. The cell culture media used for the assay is the same as described above except that it contains no G418 and no phenol red. After an incubation period of 3-4 hours at 37° C. in a 5% CO2 incubator, compounds (100 μl) are added at various concentrations. Cells are then further incubated for 4 days at 37° C. in a 5% CO2 incubator. Thereafter, the culture media is removed and cells are lysed by the addition of 95 μL of the luciferase buffer (luciferin substrate in buffered detergent). Cell lysates are incubated at room temperature and protected from direct light for at least 10 minutes. Plates are read for luciferase counts using a luminometer (Wallac MicroBeta Trilux, Perkin Elmer™, MA, USA).
Curves are fitted to data points using nonlinear regression analysis, and IC50s are interpolated from the resulting curve using GraphPad Prism software, version 2.0 (GraphPad Software Inc., San Diego, Calif., USA).

**Q.** `COC(=O)N[C@H](C(=O)N1C[C@@H](C)C[C@H]1c1ncc(-c2cc3sc(-c4ccc(-c5cc6[nH]c([C@@H]7C[C@H](C)CN7C(=O)[C@@H](NC(=O)OC)C(C)C)nc6s5)cc4)cc3s2)[nH]1)C(C)C` [Compound 29] was tested. Which EC50 did it give?
**A.** ≤ 5 nM

**Q.** How did the EC50 turn out when `COC(=O)N[C@H](C(=O)N1CCCC1c1nc2cc(C#Cc3cc4[nH]c([C@@H]5CCCN5C(=O)[C@@H](NC(=O)OC)C(C)C)nc4s3)ccc2[nH]1)C(C)C` (stereo partly drawn) [Compound 1] was run?
**A.** ≤ 5 nM

**Q.** With `COC(=O)N[C@H](C(=O)N1C[C@@H](C)C[C@H]1c1nc2sc(-c3ccc(-c4ccc5nc([C@@H]6CC[C@H](C)N6C(=O)[C@@H](NC(=O)OC)C(C)C)oc5c4)cc3)cc2[nH]1)C(C)C` [Compound 8] as the compound, how does the EC50 read?
**A.** ≤ 5 nM

**Q.** How did the EC50 turn out when `C[C@H]1C[C@@H](c2nc3cc(-c4ccc(-c5ccc(-c6cc7[nH]c([C@@H]8C[C@H](C)CN8C(=O)OC(C)(C)C)nc7s6)cc5)s4)ccc3[nH]2)N(C(=O)OC(C)(C)C)C1` [Compound 18] was run?
**A.** 5 to 5000 nM

**Q.** `COC(=O)N[C@H](C(=O)N1C[C@@H](C)C[C@H]1c1nc2cc(C#Cc3ccc(-c4cc5[nH]c([C@@H]6C[C@H](C)CN6C(=O)[C@@H](NC(=O)OC)C(C)C)nc5s4)cc3)ccc2[nH]1)C(C)C` [Compound 14] was tested. Which EC50 did it give?
**A.** ≤ 5 nM

**Q.** Which EC50 does the source give for `COC(=O)N[C@H](C(=O)N1C[C@@H](C)C[C@H]1c1nc2cc(-c3cc4sc(-c5cc6[nH]c([C@@H]7C[C@H](C)CN7C(=O)[C@@H](NC(=O)OC)C(C)C)nc6s5)cc4s3)ccc2[nH]1)C(C)C` [Compound 27] here?
**A.** ≤ 5 nM

**Q.** `COC(=O)N[C@H](C(=O)N1C[C@@H](C)C[C@H]1c1ncc(-c2ccc(-c3cc4sc(-c5cc6[nH]c([C@@H]7C[C@H](C)CN7C(=O)[C@@H](NC(=O)OC)C(C)C)nc6s5)cc4s3)cc2)[nH]1)C(C)C` [Compound 26] was tested. Which EC50 did it give?
**A.** ≤ 5 nM

**Q.** Which EC50 does the source give for `COC(=O)N[C@H](C(=O)N1C[C@@H](C)C[C@H]1c1cc2ccc(-c3ccc(-c4cc5[nH]c([C@@H]6C[C@H](C)CN6C(=O)[C@@H](NC(=O)OC)C(C)C)nc5s4)cc3)cc2[nH]1)C(C)C` [Compound 10] here?
**A.** ≤ 5 nM

**Q.** Which EC50 does the source give for `COC(=O)N[C@H](C(=O)N1C[C@@H](C)C[C@H]1c1nc2sc(-c3ccc(-c4ccc5nc([C@@H]6C[C@H](C)CN6C(=O)[C@@H](NC(=O)OC)C(C)C)n(C)c5c4)cc3)cc2[nH]1)C(C)C` [Compound 9] here?
**A.** ≤ 5 nM

**Q.** How did the EC50 turn out when `COC(=O)N[C@H](C(=O)N1C[C@@H](C)C[C@H]1c1nc(-c2cc3sccc3s2)c(-c2ccc(-c3cc4nc([C@@H]5C[C@H](C)CN5C(=O)[C@@H](NC(=O)OC)C(C)C)[nH]c4s3)cc2)[nH]1)C(C)C` [Compound 16] was run?
**A.** ≤ 5 nM

Same assay, conditions: Hepatitis C virus; Table 2B; HCV genotype 1b replicon

**Q.** Which EC50 does the source give for `COC(=O)N[C@H](C(=O)N1C[C@@H](C)C[C@H]1c1ncc(-c2ccc(-c3ccc(-c4cc5[nH]c([C@@H]6C[C@H](C)CN6C(=O)[C@@H](NC(=O)OC)C(C)C)nc5s4)cc3)cc2F)[nH]1)C(C)C` [Compound 10a] here?
**A.** ≤ 5 nM

**Q.** `COC(=O)N[C@H](C(=O)N1C[C@@H](C)C[C@H]1c1nc(-c2ccc(-c3ccc(-c4cc5[nH]c([C@@H]6C[C@H](C)CN6C(=O)[C@@H](NC(=O)OC)C(C)C)nc5s4)c(F)c3)cc2)c[nH]1)C(C)C` [Compound 7a] was tested. Which EC50 did it give?
**A.** ≤ 5 nM

**Q.** With `COC(=O)N[C@H](C(=O)N1C[C@@H](C)C[C@H]1c1nc(Cl)c(-c2ccc(-c3ccc(-c4sc5[nH]c([C@@H]6C[C@H](C)CN6C(=O)[C@@H](NC(=O)OC)C(C)C)nc5c4Cl)cc3)cc2)[nH]1)C(C)C` [Compound 2a] as the compound, how does the EC50 read?
**A.** ≤ 5 nM

**Q.** How did the EC50 turn out when `COC(=O)N[C@H](C(=O)N1C[C@@H](C)C[C@H]1c1nc(-c2ccc(-c3ccc(-c4cc5[nH]c([C@@H]6C[C@H](C)CN6C(=O)[C@@H](NC(=O)OC)C(C)C)nc5s4)cc3C)cc2)c[nH]1)C(C)C` [Compound 8a] was run?
**A.** ≤ 5 nM

**Q.** How did the EC50 turn out when `COC(=O)N[C@H](C(=O)N1C[C@@H](C)C[C@H]1c1ncc(-c2ccc(-c3ccc(-c4cc5[nH]c([C@@H]6C[C@H](C)CN6C(=O)[C@@H](NC(=O)OC)C(C)C)nc5s4)cc3)c(F)c2)[nH]1)C(C)C` [Compound 9a] was run?
**A.** ≤ 5 nM
